Test system: K12877-001-R-J1-PDC complex spheroid viability
Test: Anticancer human tumor K12877-001-R-J1-PDC patient-derived lung adenocarcinoma cell line growth inhibition [RAS]
Details: for IC50: curve of first compound; for viability, T/C: stronger effect = lower value
In short: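 Agents were tested in combination matrices in half-log decrements from a top concentration at or near clinical Cmax (10 microM if undetermined). Targets were multi-cell spheroids of tumour lines plus HUVEC and MSC stromal cells.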
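Further: spheroids exposed to agents for one week before readout.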
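Wherever viability, T/C is given: tumour cells co-cultured with HUVEC and mesenchymal stem cells in spheroids.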

Structure (SMILES): CC(C)NCC(C(=O)N1CCN(c2ncnc3c2C(C)CC3O)CC1)c1ccc(Cl)cc1 (centres undefined) + C#Cc1c(F)ccc2cc(O)cc(-c3ncc4c(N5CC6CCC(C5)N6)nc(OCC56CCCN5CC(F)C6)nc4c3F)c12
- IC50 (second compound 0.0316 µM): 6.15 µM
- IC50 (second compound 0.1 µM): 5.29 µM
- IC50 (second compound 0.316 µM): 7.95 µM
- IC50 (second compound 1 µM): 5.79 µM
- IC50 (second compound 3.16 µM): 6.06 µM
- IC50 (second compound 10 µM): 3.01 µM
- viability, T/C (second compound 0.0316 µM, first compound 0.0316 µM): 101%
- viability, T/C (second compound 0.0316 µM, first compound 0.1 µM): 95.4%
- viability, T/C (second compound 0.0316 µM, first compound 0.316 µM): 100%
- viability, T/C (second compound 0.0316 µM, first compound 1 µM): 86.5%
- viability, T/C (second compound 0.0316 µM, first compound 3.16 µM): 58.4%
- viability, T/C (second compound 0.0316 µM, first compound 10 µM): 44%
- viability, T/C (second compound 0.1 µM, first compound 0.0316 µM): 90%
- viability, T/C (second compound 0.1 µM, first compound 0.1 µM): 103%
- viability, T/C (second compound 0.1 µM, first compound 0.316 µM): 87.7%
- viability, T/C (second compound 0.1 µM, first compound 1 µM): 96.6%
- viability, T/C (second compound 0.1 µM, first compound 3.16 µM): 58.8%
- viability, T/C (second compound 0.1 µM, first compound 10 µM): 39%
- viability, T/C (second compound 0.316 µM, first compound 0.0316 µM): 105%
- viability, T/C (second compound 0.316 µM, first compound 0.1 µM): 103%
- viability, T/C (second compound 0.316 µM, first compound 0.316 µM): 78.9%
- viability, T/C (second compound 0.316 µM, first compound 1 µM): 92.4%
- viability, T/C (second compound 0.316 µM, first compound 3.16 µM): 62%
- viability, T/C (second compound 0.316 µM, first compound 10 µM): 45.5%
- viability, T/C (second compound 1 µM, first compound 0.0316 µM): 104%
- viability, T/C (second compound 1 µM, first compound 0.1 µM): 103%
- viability, T/C (second compound 1 µM, first compound 0.316 µM): 87.6%
- viability, T/C (second compound 1 µM, first compound 1 µM): 95.3%
- viability, T/C (second compound 1 µM, first compound 3.16 µM): 55.4%
- viability, T/C (second compound 1 µM, first compound 10 µM): 45.1%
- viability, T/C (second compound 3.16 µM, first compound 0.0316 µM): 105%
- viability, T/C (second compound 3.16 µM, first compound 0.1 µM): 102%
- viability, T/C (second compound 3.16 µM, first compound 0.316 µM): 99.4%
- viability, T/C (second compound 3.16 µM, first compound 1 µM): 91.1%
- viability, T/C (second compound 3.16 µM, first compound 3.16 µM): 63.6%
- viability, T/C (second compound 3.16 µM, first compound 10 µM): 39.4%
- viability, T/C (second compound 10 µM, first compound 0.0316 µM): 98%
- viability, T/C (second compound 10 µM, first compound 0.1 µM): 93.3%
- viability, T/C (second compound 10 µM, first compound 0.316 µM): 89%
- viability, T/C (second compound 10 µM, first compound 1 µM): 94.1%
- viability, T/C (second compound 10 µM, first compound 3.16 µM): 48%
- viability, T/C (second compound 10 µM, first compound 10 µM): 32.8%

Structure (SMILES): CC1(O)CCCC1n1c(=O)c(C(F)F)cc2cnc(NC3CCN(S(C)(=O)=O)CC3)nc21 (centres undefined) + CCn1c(-c2cccnc2C(C)OC)c2c3cc(ccc31)N1CCOC(CC(NC(=O)C(C(C)C)N(C)C(=O)C3(F)CCN(C(=O)C#CC(C)(C)N(C)C)CC3)C(=O)N3CCCC(N3)C(=O)OCC(C)(C)C2)C1
- IC50 (second compound 0.000949 µM): 0.202 µM
- IC50 (second compound 0.003 µM): 0.126 µM
- IC50 (second compound 0.00949 µM): 0.134 µM
- IC50 (second compound 0.03 µM): 0.107 µM
- IC50 (second compound 0.0949 µM): 0.0808 µM
- IC50 (second compound 0.3 µM): 0.0979 µM
- viability, T/C (second compound 0.000949 µM, first compound 0.0316 µM): 89.8%
- viability, T/C (second compound 0.000949 µM, first compound 0.1 µM): 61.3%
- viability, T/C (second compound 0.000949 µM, first compound 0.316 µM): 31.9%
- viability, T/C (second compound 0.000949 µM, first compound 1 µM): 38.7%
- viability, T/C (second compound 0.000949 µM, first compound 3.16 µM): 23.8%
- viability, T/C (second compound 0.000949 µM, first compound 10 µM): 2.35%
- viability, T/C (second compound 0.003 µM, first compound 0.0316 µM): 76%
- viability, T/C (second compound 0.003 µM, first compound 0.1 µM): 46.7%
- viability, T/C (second compound 0.003 µM, first compound 0.316 µM): 31.2%
- viability, T/C (second compound 0.003 µM, first compound 1 µM): 34.5%
- viability, T/C (second compound 0.003 µM, first compound 3.16 µM): 21.3%
- viability, T/C (second compound 0.003 µM, first compound 10 µM): 2.96%
- viability, T/C (second compound 0.00949 µM, first compound 0.0316 µM): 71.9%
- viability, T/C (second compound 0.00949 µM, first compound 0.1 µM): 43.5%
- viability, T/C (second compound 0.00949 µM, first compound 0.316 µM): 33.3%
- viability, T/C (second compound 0.00949 µM, first compound 1 µM): 36.8%
- viability, T/C (second compound 0.00949 µM, first compound 3.16 µM): 33.7%
- viability, T/C (second compound 0.00949 µM, first compound 10 µM): 2.22%
- viability, T/C (second compound 0.03 µM, first compound 0.0316 µM): 66.2%
- viability, T/C (second compound 0.03 µM, first compound 0.1 µM): 45.8%
- viability, T/C (second compound 0.03 µM, first compound 0.316 µM): 32.1%
- viability, T/C (second compound 0.03 µM, first compound 1 µM): 34.5%
- viability, T/C (second compound 0.03 µM, first compound 3.16 µM): 27.8%
- viability, T/C (second compound 0.03 µM, first compound 10 µM): 2.85%
- viability, T/C (second compound 0.0949 µM, first compound 0.0316 µM): 55.7%
- viability, T/C (second compound 0.0949 µM, first compound 0.1 µM): 56.5%
- viability, T/C (second compound 0.0949 µM, first compound 0.316 µM): 27.5%
- viability, T/C (second compound 0.0949 µM, first compound 1 µM): 27.9%
- viability, T/C (second compound 0.0949 µM, first compound 3.16 µM): 33.9%
- viability, T/C (second compound 0.0949 µM, first compound 10 µM): 2.46%
- viability, T/C (second compound 0.3 µM, first compound 0.0316 µM): 68.5%
- viability, T/C (second compound 0.3 µM, first compound 0.1 µM): 51.2%
- viability, T/C (second compound 0.3 µM, first compound 0.316 µM): 27.1%
- viability, T/C (second compound 0.3 µM, first compound 1 µM): 25.7%
- viability, T/C (second compound 0.3 µM, first compound 3.16 µM): 20.3%
- viability, T/C (second compound 0.3 µM, first compound 10 µM): 2.35%

From PubChem BioAssay AID2060894 (Molecular Pharmacology Branch, DTP, NCI, 2025)
